PMC9436958, “The synthesis of novel thioderivative chalcones and their influence on NF-κB, STAT3 and NRF2 signaling pathways in colorectal cancer cells” (Scientific Reports, 2022)
pIC50: −log10 of the molar value.

How the values were obtained:
AKT = tested on: AKT; parameters: method as in BinidngDB; settings: inhibitor of PDB ID 4GV1; ref BinidngDB; cited from earlier work
EGFR [1] = tested on: EGFR; parameters: method as in BinidngDB; settings: inhibitor of PDB ID 5UGB; ref BinidngDB; cited from earlier work
DLD-1 cells = assay: MTT viability assay, DLD-1 cells; type: cell-based; settings: Homo sapiens, range 0.5–100 µM, read-out: IC50, cytotoxicity
Method: (§1) The DLD-1 and HCT116 colorectal carcinoma cell lines were purchased from ECACC. The HaCaT cell line of spontaneously immortalized keratinocytes was purchased from Cell Lines Service (Germany). The cells were cultured in Dulbecco’s Modified Eagle’s Medium (DMEM, Sigma-Aldrich, USA) with the addition of 10% FBS (EURx, Poland) and 1% antibiotic solution (penicillin and streptomycin) (Sigma-Aldrich, USA) at 37 °C in an atmosphere with 95% humidity and 5% CO2.
(§2) The effect of the tested compounds on the viability of DLD-1, HCT116 and HaCaT cells was assessed by the MTT assay according to the standard protocol.

HCT116 cells = assay: MTT viability assay, HCT116 cells; type: cell-based; settings: Homo sapiens, HCT-116, range 0.5–100 µM, read-out: IC50, cytotoxicity
Method: as §1, §2

[2] = MTT viability assay, normal HaCaT cells; type: cell-based; settings: HaCaT cells (spontaneously immortalized keratinocytes), normal human HaCaT cells, read-out: IC50, cytotoxicity
Method: as §1, §2

NF-κB p65 [3] = assay: Transcription factor ELISA, NF-κB p65 binding to DNA; type: cell-based; settings: DLD-1 cells (context); 1, 4 at 1 μM; 2, 8 at 5 μM; vs control
Method: (§3) To estimate NF-ΚB (p50 and p65 subunits) STAT3 and Nrf2 activation, enzymatic immunoassays with the Transcription Factor ELISA Kit (TransAM™NF-κB, TransAM™STAT3/TransAM™Nrf2, Active Motif, Carlsbad CA, USA) were used following the manufacturer’s protocol. Briefly, proper consensus-site double-strand oligonucleotides (NF-κB—5′-GGGACTTTCC-3′; STAT3-5’—TTCCCGGAA-3’; Nrf2-5ʹ—[…]-3ʹ) were immobilized on an ELISA plate and incubated for one hour with the nuclear extracts. The activated subunits bound to DNA were recognized with a specific primary antibody and detected with an HRP-conjugated secondary antibody. The number of subunits was determined by spectrophotometry at λ = 450 nm. The number of p50, and p65 subunits, STAT3, as well as the amount of Nrf2 contained in the DNA-binding complex, corresponded to the activated NF-κB, STAT3, or Nrf2 transcription factors.

Nrf2 = assay: Transcription factor ELISA, Nrf2 binding to DNA; type: cell-based
Method: as §3

NF-κB p65 [4] = assay: qRT-PCR, NF-κB p65 mRNA; type: cell-based; settings: for inhibitory effect on p65 subunit transcription: DLD-1 cells, 5 μM
Method: (§4) Total RNA from cells was isolated with the GeneMatrix Universal DNA/RNA/Protein Purification Kit (EurX, Poland). For the qRT-PCR analyses, the Maxima SYBR Green I/ROX qPCR Master Mix (2×) (Thermo Fisher Scientific, USA) and the thermal cycler LightCycler (Roche, Germany) were used. The protocol started with 5 min of enzyme activation at 95 °C, followed by 40–50 cycles at 95 °C for 15 s, 56 °C for 20 s, 72 °C for 40 s, and final elongation at 72 °C for 5 min. Melting curve analysis was used for amplicon verification. The expression levels of TATA-box-binding protein (TBP) and porphobilinogen deaminase (PBGD) were used to normalize the data. The Pfaffl comparative method was used to calculate fold change. Primers were designed using Beacon Designer software (the sequences of primers used to analyze genes are listed in Table 2 of the supplementary materials).

COX-2 = COX-2 expression (qRT-PCR mRNA, Western blot protein); type: cell-based; settings: 4 at 1 μM; for COX-2 transcription: DLD-1 cells, 3, 6 at 5 μM
Method: (§5) Cytosolic and nuclear extracts were prepared using a Nuclear/Cytosol Fractionation Kit (BioVision Research, USA). Cytosolic extracts (for NF-κBp65, NF-κBp50, COX-2, iNOS, STAT3, c-Myc, Bcl-xl, Nrf2, SOD, GSTP, EGFR, Akt, p-Akt, Keap1, IKKα/β and β-actin) or nuclear extracts (for NF-κBp65, NF-κBp50, STAT3, p-STAT3, Nrf2, p-Nrf2 and lamin) were separated on 7.5%, 10% or 12% SDS–PAGE slab gels. Then, the proteins were transferred to a nitrocellulose Immobilon-P membrane. After blocking for 2 h with 10% skimmed milk, proteins were incubated with primary antibodies against NF-κBp65, NF-κBp50, COX-2, iNOS, STAT3, p-STAT3, c-Myc, Bcl-xl, Nrf2, p-Nrf2, SOD, GSTP, EGFR, Akt, p-Akt, Keap1, IKKα/β, β-actin, and lamin. Alkaline phosphatase (AP)-labeled anti-rabbit IgG, anti-goat IgG, and anti-mouse IgG secondary antibodies (Bio-Rad Laboratories, USA), as well as horseradish peroxidase (HRP)-conjugated anti-mouse IgG (Boster Bio, USA) secondary antibodies were used in the staining reaction. Bands were visualized by the AP Conjugate Substrate Kit NBT/BCIP or the chemiluminescent HRP substrate of the Clarity ECL Kit (Bio–Rad Laboratories, USA). The amount of immunoreactive product in each lane was determined using a ChemiDoc Imaging System (Bio–Rad Laboratories, USA). Values were calculated as relative absorbance units (RQ) per mg of protein and expressed as a percentage of the control.
as §4

STAT3 [5] = assay: Western blot, STAT3 protein level; type: cell-based; settings: DLD-1 cells; 2 at 5 μM, 4 at 1 μM
Method: as §5

STAT3 [6] = assay: Transcription factor ELISA, STAT3 binding to DNA; type: cell-based; settings: 2, 5 at 5 μM, 4 at 1 μM
Method: as §3

STAT3 [7] = assay: qRT-PCR, STAT3 mRNA; type: cell-based; settings: DLD-1 cells; 2, 5 at 5 μM, 4 at 1 μM
Method: as §4

Bcl-xl = Bcl-xl expression (qRT-PCR mRNA, Western blot protein); type: cell-based; settings: DLD-1 cells; 2 at 5 μM
Method: as §5, §4

c-Myc = c-Myc expression (qRT-PCR mRNA, Western blot protein); type: cell-based; settings: DLD-1 cells; 2 at 5 μM
Method: as §5, with “control. […]” for “control.”

EGFR [8] = assay: Western blot, EGFR protein in cytosolic fraction; type: cell-based; settings: DLD-1 cells; 2, 5 at 5 μM, 4 at 1 μM
Method: as §5

p-Akt = assay: Western blot, p-Akt (Ser 473) protein in cytosolic fraction; type: cell-based; settings: 2, 5 at 5 μM, 4 at 1 μM
Method: as §5

p-Nrf2 = assay: Western blot, p-Nrf2 protein in nuclear fraction; type: cell-based; settings: HCT116 line; 5 μM
Method: as §5

SOD = SOD expression (qRT-PCR mRNA, Western blot protein); type: cell-based; settings: HCT116 cells; 5 μM
Method: as §5
as §4, with “Primers were designed using Beacon Designer software (the sequences of primers used to analyze genes are listed in Table 2 of the supplementary materials).” left out

NF-κB p50 = assay: Transcription factor ELISA, NF-κB p50 binding to DNA; type: cell-based; settings: DLD-1 cells; 1, 4 at 1 μM; 2, 3, 5-8 at 5 μM; in relation to the control group
Method: as §3

[9] = DLD-1 cells, 1 at 1 μM, 3, 5, 7, 8 at 5 μM
[10] = HCT116 cells, 4 at 1 μM, 2, 5, 6, 7 at 5 μM

Nrf2 binding to a specific nucleotide sequence (ELISA) (Nrf2; [9])	Nrf2 binding to a specific nucleotide sequence (ELISA) (Nrf2; [10])	SMILES	pIC50 (DLD-1 cells)	pIC50 (HCT116 cells)	pIC50 [2]	reduction of the binding of the p65 subunit to DNA (NF-κB p65 [3]) [%]	other results
		NC1(C(=O)N[C@@H](CCO)c2ccc(Cl)cc2)CCN(c2ncnc3[nH]ccc23)CC1 [AZD5363]					pIC50 (AKT): 8.38
statistically significant increase		COc1ccc(/C=C/C(=O)c2cc(OC)c(OC)c(OC)c2)cc1SC [chalcone 1]	5.52	4.72	5.40	21	
	statistically significant increase	COc1cc(/C=C/C(=O)c2cc(Br)c(OC)c(OC)c2)ccc1SC [chalcone 2]	4.96	4.74	4.89	24	inhibitory effect on p65 subunit transcription (NF-κB p65 [4]): most potent inhibitory effect; COX-2 expression, protein level (COX-2; HCT116 cells, 2 at 5 μM): reduction of COX-2 expression; COX-2 expression, transcript level (COX-2; HCT116 cells, 2 at 5 μM): reduction of COX-2 expression; decrease in the nuclear level of STAT3 protein (STAT3 [5]): 22%; binding of STAT3 to DNA (STAT3 [6]; HCT116 cells): decreased the binding of STAT3 to DNA; decrease in the binding of STAT3 to DNA (STAT3 [6]; nuclear fraction of DLD-1 cells): 25%; STAT3 gene expression (mRNA) (STAT3 [7]): decreased; Bcl-xl protein level (Bcl-xl): reduced level of the Bcl-xl protein; decrease in the level of Bcl-xl mRNA (Bcl-xl): 25%; c-Myc expression (c-Myc): decreased c-Myc expression; level of EGFR (EGFR [8]): significantly decreased the level of EGFR; phosphorylation of p-Akt (Ser 473) (p-Akt; DLD-1 cells): significantly reduced phosphorylation of p-Akt; phosphorylation of p-Akt (Ser 473) (p-Akt; HCT116 cells): significantly reduced phosphorylation of p-Akt
statistically significant increase		COc1ccc(/C=C/C(=O)c2cc(Br)c(OC)c(OC)c2)cc1SC [chalcone 3]	5.10	4.77	5.05		COX-2 transcription (COX-2): statistically significant reduction
	statistically significant increase	COc1ccc(/C=C/C(=O)c2cc(Br)c(SC)c(OC)c2)cc1SC [chalcone 6]	4.92	4.68	4.89		COX-2 transcription (COX-2): statistically significant reduction; increase in the nuclear level of p-Nrf2 (p-Nrf2): 52%; levels of SOD mRNA and protein (SOD): increased levels of SOD mRNA and protein
statistically significant increase	statistically significant increase	COc1cc(C(=O)/C=C/c2ccc(SC)cc2)cc(Br)c1SC [chalcone 7]	4.37	4.72	4.57		decrease of p50 binding to the 5'-GGGACTTTCC-3' target sequence (NF-κB p50): 41%; inhibitory effect on p65 subunit transcription (NF-κB p65 [4]): most potent inhibitory effect; increase in the nuclear level of p-Nrf2 (p-Nrf2): 80%; levels of SOD mRNA and protein (SOD): increased levels of SOD mRNA and protein
statistically significant increase		COc1ccc(/C=C/C(=O)c2cc(OC)c(SC)c(OC)c2)cc1SC [chalcone 8]	5.05	4.72	4.77	38	decrease of p65 transcription (NF-κB p65 [4]; HCT116 cells, 8 at 5 μM, compared to the control group): 30%
